Article PMC8612152, “Mapping Molecular Recognition of β1,3-1,4-Glucans by a Surface Glycan-Binding Protein from the Human Gut Symbiont Bacteroides ovatus” (Microbiology Spectrum, 2021)

Legend:
Type in all cases: binding
BoSGBPMLG-A [1] = biological target: T1, BoSGBPMLG-A (Bacteroides ovatus, UniProt A0AAN3A7L1); test: microscale thermophoresis; settings: 50 mM HEPES pH 7.5, 100 mM NaCl, 5 mM CaCl2, 5 mM TCEP, 0.05% Tween 20, 25°C; protein NT-647 labelled; one-site model
T1 construct: gene BACOVA_02743; residues 24-558, signal peptide and lipidation Cys excluded, N-terminal His6 tag (pHTP1-A57), expressed in E. coli BL21(DE3); NT-647 dye labelled for MST
T1 sequence (A0AAN3A7L1 24-558): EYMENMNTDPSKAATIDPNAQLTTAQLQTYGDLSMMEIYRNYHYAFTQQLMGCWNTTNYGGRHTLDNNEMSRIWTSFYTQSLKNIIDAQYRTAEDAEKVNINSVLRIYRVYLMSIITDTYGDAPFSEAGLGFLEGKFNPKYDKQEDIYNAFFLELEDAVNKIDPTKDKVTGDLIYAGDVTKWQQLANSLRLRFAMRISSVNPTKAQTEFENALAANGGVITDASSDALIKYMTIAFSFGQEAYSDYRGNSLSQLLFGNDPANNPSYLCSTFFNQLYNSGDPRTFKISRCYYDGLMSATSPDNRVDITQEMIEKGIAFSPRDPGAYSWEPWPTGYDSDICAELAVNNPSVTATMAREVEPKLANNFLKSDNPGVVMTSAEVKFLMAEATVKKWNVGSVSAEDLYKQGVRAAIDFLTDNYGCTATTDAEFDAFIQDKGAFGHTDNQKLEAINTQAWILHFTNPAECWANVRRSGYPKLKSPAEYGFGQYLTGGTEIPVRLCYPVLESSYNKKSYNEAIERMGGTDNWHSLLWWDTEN

BoSGBPMLG-A-ZB = biological target: T2, BoSGBPMLG-A-ZB (Bacteroides ovatus, UniProt A0AAN3A7L1); test: X-ray crystal structure of the complex, […] Å; settings: co-crystallised after overnight incubation with 0.33 mM ligand, 1 mM MgCl2; pH 5.5
T2 construct: gene BACOVA_02743; residues 39-558, N-terminal His6 and Zbasic (ZB) tag (pNIC-ZB), expressed in E. coli BL21(DE3); model covers residues 40-559 as printed; 68 kDa
T2 sequence (A0AAN3A7L1 39-558): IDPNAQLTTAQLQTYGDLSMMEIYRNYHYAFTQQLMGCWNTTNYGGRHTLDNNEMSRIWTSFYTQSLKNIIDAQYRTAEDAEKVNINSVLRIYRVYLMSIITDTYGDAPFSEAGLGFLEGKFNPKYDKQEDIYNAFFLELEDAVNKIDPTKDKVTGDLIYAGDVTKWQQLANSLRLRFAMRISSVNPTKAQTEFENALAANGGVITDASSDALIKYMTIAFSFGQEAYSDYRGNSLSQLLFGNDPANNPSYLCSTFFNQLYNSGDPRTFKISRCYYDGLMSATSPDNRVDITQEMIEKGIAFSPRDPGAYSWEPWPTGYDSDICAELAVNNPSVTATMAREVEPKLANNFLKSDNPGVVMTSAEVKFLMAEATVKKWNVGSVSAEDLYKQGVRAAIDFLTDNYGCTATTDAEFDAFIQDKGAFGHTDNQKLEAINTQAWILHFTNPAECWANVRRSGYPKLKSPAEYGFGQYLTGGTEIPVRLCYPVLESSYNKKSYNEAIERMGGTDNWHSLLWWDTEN

BoSGBPMLG-A [2] = biological target: T1, BoSGBPMLG-A; test: microscale thermophoresis; settings: 50 mM HEPES pH 7.5, 100 mM NaCl, 5 mM CaCl2, 5 mM TCEP, 0.05% Tween 20, 25°C; protein NT-647 labelled; weak, affinity not determinable (ligand solubility)

| Compound | Ka (BoSGBPMLG-A [1]) | X-ray crystal structure of the complex, 1.43 Å (BoSGBPMLG-A-ZB) | microscale thermophoresis (BoSGBPMLG-A [2]) |
| --- | --- | --- | --- |
| OC[C@H]1O[C@@H](O[C@H]2[C@H](O)[C@@H](O)[C@H](O[C@@H]3[C@@H](O)[C@H](O[C@H]4[C@H](O)[C@@H](O)[C@H](O[C@H]5[C@H](O)[C@@H](O)[C@H](O[C@H]6[C@H](O)[C@@H](CO)OC(O)[C@@H]6O)O[C@@H]5CO)O[C@@H]4CO)O[C@H](CO)[C@H]3O)O[C@@H]2CO)[C@H](O)[C@@H](O)[C@@H]1O (stereo partly drawn) [barley-6] | (1.53 ± 0.23) x 10^5 |  |  |
| OC[C@H]1O[C@@H](O[C@H]2[C@H](O)[C@@H](O)[C@H](O[C@H]3[C@H](O)[C@@H](O)[C@H](O[C@@H]4[C@@H](O)[C@H](O[C@H]5[C@H](O)[C@@H](O)[C@H](O[C@H]6[C@H](O)[C@@H](O)[C@H](O[C@H]7[C@H](O)[C@@H](CO)OC(O)[C@@H]7O)O[C@@H]6CO)O[C@@H]5CO)O[C@H](CO)[C@H]4O)O[C@@H]3CO)O[C@@H]2CO)[C@H](O)[C@@H](O)[C@@H]1O (stereo partly drawn) [barley-7] | (1.06 ± 0.18) x 10^5 |  |  |
| OC[C@H]1O[C@@H](O[C@@H]2[C@@H](O)[C@H](O[C@H]3[C@H](O)[C@@H](O)[C@H](O[C@H]4[C@H](O)[C@@H](O)[C@H](O[C@@H]5[C@@H](O)[C@H](O[C@H]6[C@H](O)[C@@H](O)[C@H](O[C@H]7[C@H](O)[C@@H](O)[C@H](O[C@H]8[C@H](O)[C@@H](CO)OC(O)[C@@H]8O)O[C@@H]7CO)O[C@@H]6CO)O[C@H](CO)[C@H]5O)O[C@@H]4CO)O[C@@H]3CO)O[C@H](CO)[C@H]2O)[C@H](O)[C@@H](O)[C@@H]1O (stereo partly drawn) [barley-8] | (4.29 ± 1.15) x 10^5 |  |  |
| OC[C@H]1O[C@@H](O[C@H]2[C@H](O)[C@@H](O)[C@H](O[C@@H]3[C@@H](O)[C@H](O[C@H]4[C@H](O)[C@@H](O)[C@H](O[C@H]5[C@H](O)[C@@H](O)[C@H](O[C@@H]6[C@@H](O)[C@H](O[C@H]7[C@H](O)[C@@H](O)[C@H](O[C@H]8[C@H](O)[C@@H](O)[C@H](O[C@H]9[C@H](O)[C@@H](CO)OC(O)[C@@H]9O)O[C@@H]8CO)O[C@@H]7CO)O[C@H](CO)[C@H]6O)O[C@@H]5CO)O[C@@H]4CO)O[C@H](CO)[C@H]3O)O[C@@H]2CO)[C@H](O)[C@@H](O)[C@@H]1O (stereo partly drawn) [barley-9] | (4.62 ± 1.02) × 10^5 | structure of BoSGBPMLG-A in complex with barley-9 (G4G3G4G4G3G4G4G3G) |  |
| OC[C@H]1O[C@@H](O[C@H]2[C@H](O)[C@@H](O)[C@H](O[C@H]3[C@H](O)[C@@H](O)[C@H](O[C@H]4[C@H](O)[C@@H](O)[C@H](O[C@H]5[C@H](O)[C@@H](O)[C@H](O[C@H]6[C@H](O)[C@@H](O)[C@H](O[C@H]7[C@H](O)[C@@H](O)C(O)O[C@@H]7CO)O[C@@H]6CO)O[C@@H]5CO)O[C@@H]4CO)O[C@@H]3CO)O[C@@H]2CO)[C@H](O)[C@@H](O)[C@@H]1O (stereo partly drawn) [cello-7] |  |  | For the more weakly binding cello-7, it was not possible to determine the affinity |
